Where two headings read alike, the source gives them in different places.

For one test, the system named is B16 melanoma cells. Nature of the test: Test for malignant melanoma metastasis-inhibitory effect (lung metastasis after i.v. injection of B16 melanoma cells). The class given is in vivo, Whister female rats. Particulars: rats; for RMI (rate of metastasis-inhibition): every other day, lung lesions on 15th day; for tumor cell-metastasis-inhibitory effect compared with the control group (in words): metastasis of cancer to lung, summary of Table 2. On the procedure:
The tumor cell-metastasis-inhibitory effect can be evaluated according to, for instance, the malignant melanoma metastasis-inhibitory test. More specifically, a suspension of B16 melanoma cells prepared in advance is intravenously injected into Whister female rats, cotton seed oil in which each test substance is dissolved in a predetermined concentration is intraperitoneally administered through injection or orally administered using a sonde, every second day starting from 2nd day after the intravenous injection of the suspension. In this connection, only cotton seed oil is administered to the control group of animals. The lungs are extracted from these animals on the 15th day after the injection of the B16 melanoma cells, the lungs are examined to determine the number of cancer lesions thus metastasized to thus calculate the rate of metastasis-inhibition. The tumor cell-metastasis-inhibitory effect of each test sample is evaluated on the basis of the resulting rate of metastasis-inhibition.
Tests for evaluating the malignant melanoma metastasis-inhibitory effect of each test sample were conducted according to the following method. Whister female rats (6-week-old; average body weight: 160 g) were preliminarily bred with a powdery feed preparation having a composition of AIN-93 for one week, these animals were divided into 5 groups (8 animals per group) so as to equalize the average body weight and then a previously prepared suspension of B16 melanoma cells was intravenously injected into each rat. Subsequently, these animals were bred with a powdery feed preparation having a composition of AIN-93 and cotton seed oil in which each of maslinic acid, erythrodiol, ursolic acid, uvaol, betulinic acid, betulin, compounds of Synthetic Examples 1 and 2, or oleanolic acid had been dissolved in a predetermined concentration was intraperitoneally injected into each animal or orally administered thereto using a sonde, every other day starting from the 2nd day after the injection of the B 16 melanoma cells. In this connection, only cotton seed oil was administered to the control group. On the 15th day after the injection of the B 16 melanoma cells, the lung of each animal was taken out, the lungs were examined to determine the number of cancer lesions thus metastasized and to thus calculate the rate of metastasis-inhibition in accordance with the following equation 2. The tumor cell-metastasis-inhibitory effect of each test sample could be evaluated on the basis of the resulting rate of metastasis-inhibition.
Rate of Metastasis-Inhibition (%)=[(D−C)/D]×100
Wherein C: Average number of cancer lesions metastasized observed in each animal group; and D: average number of cancer lesions metastasized observed in the control group.
Maslinic acid, erythrodiol, ursolic acid, uvaol, betulinic acid, betulin and physiologically acceptable salts thereof or derivatives thereof as well as cotton seed oil as the control were inspected for the rate of metastasis-inhibition (RMI) using the dose and administration methods specified in the following Table 2. In addition, the same procedures used above were repeated except for using oleanolic acid as a comparative sample to thus evaluate the rate of metastasis-inhibition (RMI) thereof.

Another test deals with B-16 melanoma cells. Put plainly: Tests for tumor cell-proliferation-inhibitory effect and tumor cell-extinction (cell growth rate from viable cell count). The following applies: for activity at 5 ppm / activity at 10 ppm / activity at 15 ppm / activity at 20 ppm / activity at 25 ppm / activity at 50 ppm: Mus musculus, B16, 144 h; for tumor cell-proliferation-inhibitory effect (in words): summary of Table 1; for tumor cell-killing effect (in words): at not less than 2 times the concentration required for proliferation inhibition. The class given is cell-based. As for the experimental part:
The tumor cell-proliferation-inhibitory effect and the tumor cell-killing or extinction effect can be determined according to the following method using B-16 melanoma cells.
More specifically, B-16 melanoma cells are inoculated in each well of a 6-well plate in a desired amount, followed by allowing the plate to stand at 37° C. and 5% carbon dioxide concentration to thus cultivate the cells, adding a sample solution to be tested (maslinic acid, erythrodiol, ursolic acid, uvaol, betulinic acid, betulin and physiologically acceptable salts thereof or derivatives thereof) to each well in an amount sufficient for achieving a desired concentration, on the next day or after 5 days from the initiation of the cultivation, determination of viable cell count on the 6th day after the initiation of the cultivation and calculation of the cell growth rate based on the viable cell count to thus evaluate the tumor cell-proliferation-inhibitory effect and the tumor cell-killing effect.
Tests for determining the tumor cell-proliferation-inhibitory effect and the tumor cell-killing effect were conducted according to the following method. To a 6-well plate, a culture medium was dispensed in an amount of 2 mL/well, B-16 melanoma cells were then inoculated in a desired quantity and thereafter the melanoma cells were cultivated by allowing the plate or the culture medium to stand at 37° C. and a carbon dioxide concentration of 5%. On the following day, a test sample solution prepared was added to and admixed with the content of each well to a desired concentration and the cultivation of the melanoma cells was continued. The culture medium was then exchanged on the 5th day from the initiation of the cultivation and the test sample solution was again added to each well. On the next day, the culture medium was removed to recover the cultivated melanoma cells, followed by washing the cells with PBS (phosphate buffered saline), determination of the viable cell count, and then calculation of the cell growth rate according to the following equation 1. The tumor cell-proliferation-inhibitory effect and the tumor cell-killing effect of each test sample were evaluated on the basis of the cell growth rate thus determined.
Cell Growth Rate (%)=(A/B)×100
As comparative examples, oleanolic acid, β-amyrin, α-amyrin and lupeol were added to the culture medium to thus determine and evaluate the cell growth rate by the same method used above.

The mark [1] stands for this setting: 100 mg/body wt. (kg), Oral Adm.
[2] abbreviates: 5 ppm, viable cell count vs control on 6th day.
Setting [3] is: 10 ppm, viable cell count vs control on 6th day.
Setting [4] is: 15 ppm, viable cell count vs control on 6th day.
Setting [5] is: 20 ppm, viable cell count vs control on 6th day.
Where [6] appears, read: 25 ppm, viable cell count vs control on 6th day.
Setting [7] is: 5 ppm, viable cell count vs control on 6th day, read-out: Cell Growth Rate.
[8] abbreviates: 15 ppm, viable cell count vs control on 6th day, read-out: Cell Growth Rate.
Where [9] appears, read: 25 ppm, viable cell count vs control on 6th day, read-out: Cell Growth Rate.
[10] abbreviates: viable cell count vs control on 6th day.

On to `CC1(C)CC[C@]2(C(=O)O)CC[C@]3(C)C(=CC[C@@H]4[C@@]5(C)C[C@@H](O)[C@H](O)C(C)(C)[C@@H]5CC[C@]43C)[C@@H]2C1` [Purified maslinic acid 2, maslinic acid], for which the “RMI (rate of metastasis-inhibition)” value worked out at 67.3% in the test with B16 melanoma cells (50 mg/body wt. (kg), I.P. Adm.) and 78.6% with B16 melanoma cells (setting [1]). For the same molecule, the activity at 5 ppm with B-16 melanoma cells (read-out: Cell Growth Rate, 5 ppm, viable cell count vs control on 6th day) came to 75%. Further, the activity at 10 ppm in the test on B-16 melanoma cells (read-out: Cell Growth Rate, 10 ppm, viable cell count vs control on 6th day) stood at 47%. The activity at 15 ppm in the test with B-16 melanoma cells (read-out: Cell Growth Rate, 15 ppm, viable cell count vs control on 6th day) came to 11%. In the test on B-16 melanoma cells (read-out: Cell Growth Rate, 20 ppm, viable cell count vs control on 6th day), the activity at 20 ppm came out at 0%. The activity at 25 ppm with B-16 melanoma cells (read-out: Cell Growth Rate, 25 ppm, viable cell count vs control on 6th day) is 0%.

As for `CC1(C)CC[C@]2(C(=O)O)CC[C@]3(C)C(=CC[C@@H]4[C@@]5(C)C[C@@H](O)[C@H](O)C(C)(C)[C@@H]5CC[C@]43C)[C@@H]2C1` [Purified maslinic acid 1, maslinic acid], in the test with B16 melanoma cells (50 mg/body wt. (kg), Oral Adm.), the “RMI (rate of metastasis-inhibition)” value is listed as 61.4%. Also, the “Cell Growth Rate” value with B-16 melanoma cells (setting [2]) amounted to 67%; in the test on B-16 melanoma cells (setting [3]), 43%; with B-16 melanoma cells (setting [4]), 6%; in the test with B-16 melanoma cells (setting [5]), 0%; in the test with B-16 melanoma cells (setting [6]), 0%.

`C=C(C)[C@@H]1CC[C@]2(CO)CC[C@]3(C)[C@H](CC[C@@H]4[C@@]5(C)CC[C@H](O)C(C)(C)[C@@H]5CC[C@]43C)[C@@H]12` [Betulin]: the “RMI (rate of metastasis-inhibition)” value in the test on B16 melanoma cells (setting [1]) is given as 38.9%. The “tumor cell-metastasis-inhibitory effect compared with the control group (in words)” value in the test with B16 melanoma cells is “significantly (P<0.05) inhibit any metastasis of cancer to lung”. Also, the activity at 5 ppm in the test with B-16 melanoma cells (setting [7]) came out at 100%. Also, the activity at 15 ppm in the test with B-16 melanoma cells (setting [8]) was 78%. Besides, the activity at 25 ppm in the test on B-16 melanoma cells (setting [9]) was found to be 72%. In the test on B-16 melanoma cells (setting [10]), this molecule displayed an activity at 50 ppm of 63%. In addition, the “tumor cell-proliferation-inhibitory effect (in words)” value in the test on B-16 melanoma cells is given as “quite strong tumor cell-proliferation-inhibitory effects”.

For `CC1(C)CC[C@]2(CO)CC[C@]3(C)C(=CC[C@@H]4[C@@]5(C)CC[C@H](O)C(C)(C)[C@@H]5CC[C@]43C)[C@@H]2C1` [Erythrodiol], in the test with B16 melanoma cells (setting [1]), the “RMI (rate of metastasis-inhibition)” value stood at 56.3%. Also, the “tumor cell-metastasis-inhibitory effect compared with the control group (in words)” value in the test on B16 melanoma cells is on record as “significantly (P<0.05) inhibit any metastasis of cancer to lung”. Further, the activity at 5 ppm with B-16 melanoma cells (setting [7]) came to 73%. Besides, the activity at 15 ppm in the test on B-16 melanoma cells (setting [8]) worked out at 69%. For the same molecule, the activity at 25 ppm with B-16 melanoma cells (setting [9]) was 53%. The molecule further registered an activity at 50 ppm in the test with B-16 melanoma cells (setting [10]) of 43%. Besides, the “tumor cell-proliferation-inhibitory effect (in words)” value in the test with B-16 melanoma cells is on record as “quite strong tumor cell-proliferation-inhibitory effects”.

Regarding `C[C@H]1[C@H](C)CC[C@]2(C(=O)O)CC[C@]3(C)C(=CC[C@@H]4[C@@]5(C)CC[C@H](O)C(C)(C)[C@@H]5CC[C@]43C)[C@H]12` [Ursolic acid], in the test on B16 melanoma cells (setting [1]), the “RMI (rate of metastasis-inhibition)” value came out at 79.5%. Further, in the test on B16 melanoma cells, the “tumor cell-metastasis-inhibitory effect compared with the control group (in words)” value is “significantly (P<0.05) inhibit any metastasis of cancer to lung”. For the same molecule, the activity at 5 ppm in the test on B-16 melanoma cells (setting [7]) came to 64%. For the same molecule, the activity at 10 ppm with B-16 melanoma cells (10 ppm, viable cell count vs control on 6th day, read-out: Cell Growth Rate) is 40%. Further, the activity at 15 ppm in the test on B-16 melanoma cells (setting [8]) was 3%. Besides, the activity at 20 ppm in the test with B-16 melanoma cells (20 ppm, viable cell count vs control on 6th day, read-out: Cell Growth Rate) was 0%. Further, in the test on B-16 melanoma cells (setting [9]), the activity at 25 ppm turned out to be 0%. The same molecule registered an activity at 50 ppm with B-16 melanoma cells (setting [10]) of 0%. In addition, in the test on B-16 melanoma cells, the “tumor cell-killing effect (in words)” value is reported as “quite intensive tumor cell-killing effects” and the “tumor cell-proliferation-inhibitory effect (in words)” value was “quite strong tumor cell-proliferation-inhibitory effects”.

Take `CCOC(=O)[C@]12CCC(C)(C)C[C@H]1C1=CC[C@@H]3[C@@]4(C)C[C@@H](O)[C@H](O)C(C)(C)[C@@H]4CC[C@@]3(C)[C@]1(C)CC2` [Comp. Of Synthetic Ex. 1, maslinic acid ethyl ester]: the “RMI (rate of metastasis-inhibition)” value in the test on B16 melanoma cells (setting [1]) turned out to be 77.6%. Besides, the “Cell Growth Rate” value with B-16 melanoma cells (setting [2]) was 73%; in the test on B-16 melanoma cells (setting [3]) it was 49%; in the test on B-16 melanoma cells (setting [4]) it was 18%; with B-16 melanoma cells (setting [5]) it was 0%; in the test with B-16 melanoma cells (setting [6]), 0%.

As to `CC1(C)CC[C@]2(C(=O)O)CC[C@]3(C)C(=CC[C@@H]4[C@@]5(C)C[C@@H](O)[C@H](O)C(C)(C)[C@@H]5CC[C@]43C)[C@@H]2C1` [maslinic acid], in the test with B16 melanoma cells, the “tumor cell-metastasis-inhibitory effect compared with the control group (in words)” value was “significantly (P<0.05) inhibit any metastasis of cancer to lung”. For the same molecule, in the test on B-16 melanoma cells, the “tumor cell-killing effect (in words)” value is on record as “quite intensive tumor cell-killing effects” and the “tumor cell-proliferation-inhibitory effect (in words)” value is on record as “quite strong tumor cell-proliferation-inhibitory effects”.

For the molecule `C[C@H]1[C@H](C)CC[C@]2(CO)CC[C@]3(C)C(=CC[C@@H]4[C@@]5(C)CC[C@H](O)C(C)(C)[C@@H]5CC[C@]43C)[C@H]12` [Uvaol], the “RMI (rate of metastasis-inhibition)” value in the test on B16 melanoma cells (setting [1]) was 43.7%. For the same molecule, the “tumor cell-metastasis-inhibitory effect compared with the control group (in words)” value in the test with B16 melanoma cells was “significantly (P<0.05) inhibit any metastasis of cancer to lung”. Further, the activity at 5 ppm with B-16 melanoma cells (setting [7]) is 80%. Also, the activity at 15 ppm with B-16 melanoma cells (setting [8]) came to 69%. Besides, the activity at 25 ppm in the test on B-16 melanoma cells (setting [9]) worked out at 49%. Further, the activity at 50 ppm with B-16 melanoma cells (setting [10]) turned out to be 30%. Also, the “tumor cell-proliferation-inhibitory effect (in words)” value in the test with B-16 melanoma cells is “quite strong tumor cell-proliferation-inhibitory effects”.

On to `C=C(C)[C@@H]1CC[C@]2(C(=O)O)CC[C@]3(C)[C@H](CC[C@@H]4[C@@]5(C)CC[C@H](O)C(C)(C)[C@@H]5CC[C@]43C)[C@@H]12` [Betulinic acid], for which the “RMI (rate of metastasis-inhibition)” value in the test with B16 melanoma cells (setting [1]) is reported as 51.2%. In addition, the “tumor cell-metastasis-inhibitory effect compared with the control group (in words)” value with B16 melanoma cells is “significantly (P<0.05) inhibit any metastasis of cancer to lung”. Besides, the activity at 5 ppm in the test on B-16 melanoma cells (setting [7]) stood at 88%. Also, the activity at 15 ppm with B-16 melanoma cells (setting [8]) was 77%. In addition, the activity at 25 ppm in the test on B-16 melanoma cells (setting [9]) turned out to be 58%. The molecule also had an activity at 50 ppm in the test on B-16 melanoma cells (setting [10]) of 38%. In addition, the “tumor cell-proliferation-inhibitory effect (in words)” value with B-16 melanoma cells is listed as “quite strong tumor cell-proliferation-inhibitory effects”.

(Values after US20030153538A1, “Antitumor agent” (The Nisshin OilliO, Ltd., priority 2000, published 2003).)
